Reference: the NIST ThermoML archive (doi:10.1021/je800231f)
Values joined by “and” are separate entries in the source; they are usually repeats but may differ in a detail not shown here. Equal values may be shown once. ± gives the expanded uncertainty stated by the source.

Conditions: Crystal

[F][Hg].[F][Hg] [mercury fluoride (Hg2F2)]
vapor or sublimation pressure (496 K): 2.3e-05 ± 4e-06 kPa | vapor or sublimation pressure (503 K): 3.4e-05 ± 5e-06 kPa | vapor or sublimation pressure (508 K): 5.8e-05 ± 9e-06 kPa | vapor or sublimation pressure (509 K): 4.6e-05 ± 7e-06 kPa | vapor or sublimation pressure (515 K): 7.9e-05 ± 1.2e-05 kPa | vapor or sublimation pressure (516 K): 6.8e-05 ± 1e-05 kPa | vapor or sublimation pressure (520 K): 0.000102 ± 1.5e-05 kPa | vapor or sublimation pressure (524 K): 0.000138 ± 2.1e-05 kPa | vapor or sublimation pressure (526 K): 0.000138 ± 2.1e-05 kPa | vapor or sublimation pressure (531 K): 0.000204 ± 3.1e-05 kPa | vapor or sublimation pressure (533 K): 0.000229 ± 3.4e-05 kPa | vapor or sublimation pressure (536 K): 0.000288 ± 4.3e-05 kPa and 0.000214 ± 3.2e-05 kPa and 0.000229 ± 3.4e-05 kPa | vapor or sublimation pressure (539 K): 0.000275 ± 4.1e-05 kPa | vapor or sublimation pressure (542 K): 0.000389 ± 5.8e-05 kPa | vapor or sublimation pressure (543 K): 0.000324 ± 4.9e-05 kPa | vapor or sublimation pressure (544 K): 0.000407 ± 6.1e-05 kPa | vapor or sublimation pressure (545 K): 0.000437 ± 6.6e-05 kPa | vapor or sublimation pressure (546 K): 0.000501 ± 7.5e-05 kPa and 0.000363 ± 5.5e-05 kPa | vapor or sublimation pressure (547 K): 0.000437 ± 6.6e-05 kPa | vapor or sublimation pressure (548 K): 0.000501 ± 7.5e-05 kPa | vapor or sublimation pressure (549 K): 0.000457 ± 6.9e-05 kPa | vapor or sublimation pressure (552 K): 0.000589 ± 8.8e-05 kPa | vapor or sublimation pressure (553 K): 0.00055 ± 8.3e-05 kPa | vapor or sublimation pressure (554 K): 0.000871 ± 0.00013 kPa and 0.000646 ± 9.7e-05 kPa and 0.000575 ± 8.6e-05 kPa | vapor or sublimation pressure (556 K): 0.000676 ± 0.0001 kPa | vapor or sublimation pressure (557 K): 0.000794 ± 0.00012 kPa and 0.000724 ± 0.00011 kPa | vapor or sublimation pressure (559 K): 0.000871 ± 0.00013 kPa and 0.000724 ± 0.00011 kPa and 0.000851 ± 0.00013 kPa | vapor or sublimation pressure (560 K): 0.000794 ± 0.00012 kPa | vapor or sublimation pressure (562 K): 0.001 ± 0.00015 kPa and 0.000912 ± 0.00014 kPa | vapor or sublimation pressure (563 K): 0.001 ± 0.00015 kPa | vapor or sublimation pressure (564 K): 0.001288 ± 0.00019 kPa and 0.001 ± 0.00015 kPa | vapor or sublimation pressure (565 K): 0.001148 ± 0.00017 kPa and 0.001259 ± 0.00019 kPa | vapor or sublimation pressure (567 K): 0.001259 ± 0.00019 kPa | vapor or sublimation pressure (569 K): 0.00123 ± 0.00018 kPa | vapor or sublimation pressure (571 K): 0.001585 ± 0.00024 kPa | vapor or sublimation pressure (572 K): 0.001585 ± 0.00024 kPa and 0.001445 ± 0.00022 kPa | vapor or sublimation pressure (573 K): 0.002138 ± 0.00032 kPa and 0.001549 ± 0.00023 kPa and 0.001349 ± 0.0002 kPa | vapor or sublimation pressure (574 K): 0.001585 ± 0.00024 kPa | vapor or sublimation pressure (576 K): 0.002042 ± 0.00031 kPa | vapor or sublimation pressure (577 K): 0.002399 ± 0.00036 kPa | vapor or sublimation pressure (578 K): 0.00195 ± 0.00029 kPa and 0.002089 ± 0.00031 kPa and 0.001905 ± 0.00029 kPa | vapor or sublimation pressure (579 K): 0.002089 ± 0.00031 kPa | vapor or sublimation pressure (580 K): 0.002089 ± 0.00031 kPa | vapor or sublimation pressure (582 K): 0.003162 ± 0.00047 kPa | vapor or sublimation pressure (583 K): 0.002089 ± 0.00031 kPa | vapor or sublimation pressure (584 K): 0.003236 ± 0.00049 kPa and 0.002512 ± 0.00038 kPa | vapor or sublimation pressure (585 K): 0.002692 ± 0.0004 kPa and 0.002818 ± 0.00042 kPa | vapor or sublimation pressure (586 K): 0.002884 ± 0.00043 kPa | vapor or sublimation pressure (588 K): 0.003236 ± 0.00049 kPa and 0.003162 ± 0.00047 kPa | vapor or sublimation pressure (589 K): 0.00309 ± 0.00046 kPa | vapor or sublimation pressure (590 K): 0.003548 ± 0.00053 kPa | vapor or sublimation pressure (591 K): 0.004571 ± 0.00069 kPa | vapor or sublimation pressure (592 K): 0.004467 ± 0.00067 kPa | vapor or sublimation pressure (593 K): 0.003631 ± 0.00055 kPa | vapor or sublimation pressure (594 K): 0.004467 ± 0.00067 kPa | vapor or sublimation pressure (595 K): 0.004365 ± 0.00065 kPa | vapor or sublimation pressure (596 K): 0.004571 ± 0.00069 kPa and 0.004365 ± 0.00065 kPa | vapor or sublimation pressure (599 K): 0.006026 ± 0.0009 kPa and 0.004786 ± 0.00072 kPa | vapor or sublimation pressure (600 K): 0.006918 ± 0.001 kPa and 0.00537 ± 0.00081 kPa | vapor or sublimation pressure (601 K): 0.005754 ± 0.00086 kPa | vapor or sublimation pressure (605 K): 0.007762 ± 0.0012 kPa and 0.006457 ± 0.00097 kPa and 0.006761 ± 0.001 kPa | vapor or sublimation pressure (606 K): 0.006918 ± 0.001 kPa [middle of 4 runs] | vapor or sublimation pressure (609 K): 0.00955 ± 0.0014 kPa | vapor or sublimation pressure (611 K): 0.008128 ± 0.0012 kPa and 0.00955 ± 0.0014 kPa and 0.007413 ± 0.0011 kPa | vapor or sublimation pressure (614 K): 0.01 ± 0.0015 kPa and 0.00871 ± 0.0013 kPa | vapor or sublimation pressure (615 K): 0.01 ± 0.0015 kPa | vapor or sublimation pressure (616 K): 0.01259 ± 0.0019 kPa and 0.01072 ± 0.0016 kPa and 0.01097 ± 0.0016 kPa | vapor or sublimation pressure (617 K): 0.01148 ± 0.0017 kPa | vapor or sublimation pressure (618 K): 0.0123 ± 0.0018 kPa | vapor or sublimation pressure (619 K): 0.01023 ± 0.0015 kPa | vapor or sublimation pressure (622 K): 0.0138 ± 0.0021 kPa and 0.0123 ± 0.0018 kPa | vapor or sublimation pressure (623 K): 0.01514 ± 0.0023 kPa | vapor or sublimation pressure (624 K): 0.01738 ± 0.0026 kPa | vapor or sublimation pressure (625 K): 0.01862 ± 0.0028 kPa | vapor or sublimation pressure (626 K): 0.0138 ± 0.0021 kPa | vapor or sublimation pressure (628 K): 0.01549 ± 0.0023 kPa | vapor or sublimation pressure (629 K): 0.0195 ± 0.0029 kPa

[F-].[F-].[Hg+2] [mercuric difluoride]
vapor or sublimation pressure (457 K): 0.00015 ± 2e-05 kPa | vapor or sublimation pressure (464 K): 0.00018 ± 3e-05 kPa | vapor or sublimation pressure (466 K): 0.00024 ± 4e-05 kPa | vapor or sublimation pressure (469 K): 0.0003 ± 5e-05 kPa | vapor or sublimation pressure (473 K): 0.00024 ± 4e-05 kPa | vapor or sublimation pressure (474 K): 0.00042 ± 6e-05 kPa | vapor or sublimation pressure (475 K): 0.00036 ± 5e-05 kPa | vapor or sublimation pressure (480 K): 0.00048 ± 7e-05 kPa | vapor or sublimation pressure (481 K): 0.00066 ± 0.0001 kPa and 0.00042 ± 6e-05 kPa | vapor or sublimation pressure (483 K): 0.00051 ± 8e-05 kPa and 0.00054 ± 8e-05 kPa | vapor or sublimation pressure (487 K): 0.0006 ± 9e-05 kPa | vapor or sublimation pressure (488 K): 0.00089 ± 0.00013 kPa | vapor or sublimation pressure (490 K): 0.00076 ± 0.00011 kPa and 0.00078 ± 0.00012 kPa | vapor or sublimation pressure (492 K): 0.00078 ± 0.00012 kPa | vapor or sublimation pressure (493 K): 0.00091 ± 0.00014 kPa | vapor or sublimation pressure (494 K): 0.00089 ± 0.00013 kPa | vapor or sublimation pressure (496 K): 0.00115 ± 0.00017 kPa and 0.00095 ± 0.00014 kPa and 0.00107 ± 0.00016 kPa | vapor or sublimation pressure (498 K): 0.00135 ± 0.0002 kPa and 0.00107 ± 0.00016 kPa | vapor or sublimation pressure (499 K): 0.00112 ± 0.00017 kPa | vapor or sublimation pressure (502 K): 0.00162 ± 0.00024 kPa and 0.00132 ± 0.0002 kPa | vapor or sublimation pressure (503 K): 0.00151 ± 0.00023 kPa | vapor or sublimation pressure (504 K): 0.00178 ± 0.00027 kPa | vapor or sublimation pressure (505 K): 0.00174 ± 0.00026 kPa | vapor or sublimation pressure (507 K): 0.00162 ± 0.00024 kPa and 0.00186 ± 0.00028 kPa | vapor or sublimation pressure (510 K): 0.00209 ± 0.00031 kPa | vapor or sublimation pressure (511 K): 0.00245 ± 0.00037 kPa | vapor or sublimation pressure (512 K): 0.00224 ± 0.00034 kPa | vapor or sublimation pressure (513 K): 0.00288 ± 0.00043 kPa and 0.00245 ± 0.00037 kPa | vapor or sublimation pressure (514 K): 0.00229 ± 0.00034 kPa | vapor or sublimation pressure (515 K): 0.00257 ± 0.00039 kPa | vapor or sublimation pressure (516 K): 0.00347 ± 0.00052 kPa | vapor or sublimation pressure (518 K): 0.00363 ± 0.00054 kPa | vapor or sublimation pressure (520 K): 0.00324 ± 0.00049 kPa | vapor or sublimation pressure (521 K): 0.00398 ± 0.0006 kPa and 0.00339 ± 0.00051 kPa | vapor or sublimation pressure (523 K): 0.00331 ± 0.0005 kPa | vapor or sublimation pressure (525 K): 0.00437 ± 0.00066 kPa and 0.00363 ± 0.00054 kPa | vapor or sublimation pressure (526 K): 0.00479 ± 0.00072 kPa | vapor or sublimation pressure (527 K): 0.00437 ± 0.00066 kPa and 0.00457 ± 0.00069 kPa | vapor or sublimation pressure (528 K): 0.00457 ± 0.00069 kPa | vapor or sublimation pressure (529 K): 0.0055 ± 0.00083 kPa | vapor or sublimation pressure (533 K): 0.00575 ± 0.00086 kPa | vapor or sublimation pressure (535 K): 0.00759 ± 0.0011 kPa and 0.00617 ± 0.00093 kPa | vapor or sublimation pressure (537 K): 0.00759 ± 0.0011 kPa | vapor or sublimation pressure (539 K): 0.00646 ± 0.00097 kPa | vapor or sublimation pressure (542 K): 0.00871 ± 0.0013 kPa | vapor or sublimation pressure (543 K): 0.01047 ± 0.0016 kPa and 0.00871 ± 0.0013 kPa | vapor or sublimation pressure (544 K): 0.01072 ± 0.0016 kPa | vapor or sublimation pressure (549 K): 0.00933 ± 0.0014 kPa | vapor or sublimation pressure (551 K): 0.01318 ± 0.002 kPa and 0.01175 ± 0.0018 kPa | vapor or sublimation pressure (552 K): 0.01445 ± 0.0022 kPa | vapor or sublimation pressure (555 K): 0.0138 ± 0.0021 kPa | vapor or sublimation pressure (557 K): 0.0166 ± 0.0025 kPa and 0.01318 ± 0.002 kPa | vapor or sublimation pressure (560 K): 0.01862 ± 0.0028 kPa and 0.01698 ± 0.0026 kPa | vapor or sublimation pressure (561 K): 0.01622 ± 0.0024 kPa | vapor or sublimation pressure (565 K): 0.02188 ± 0.0033 kPa | vapor or sublimation pressure (568 K): 0.02455 ± 0.0037 kPa | vapor or sublimation pressure (570 K): 0.02042 ± 0.0031 kPa | vapor or sublimation pressure (580 K): 0.02951 ± 0.0044 kPa | vapor or sublimation pressure (589 K): 0.04074 ± 0.0061 kPa
